Measured values: article PMC11414412, “Design and synthesis new indole-based aromatase/iNOS inhibitors with apoptotic antiproliferative activity” (Frontiers in Chemistry, 2024)

What was measured:
[1] = system: A-549 cells; experiment: Antiproliferative assay, A-549; assay type: cell-based; conditions: Homo sapiens, A549; A-549 lung cancer cell line; read-out: Antiproliferative activity IC50 ± SEM, A-549
Description: (§1) 4.2.2. Assay for antiproliferative effect
(§2) To explore the antiproliferative potential of compounds propidium iodide fluorescence assay was performed using different cell lines such as Panc-1 (pancreas cancer cell line), MCF-7 (breast cancer cell line), HT-29 (colon cancer cell line) and A-549 (epithelial cancer cell line), respectively. To calculate the total nuclear DNA, a fluorescent dye (propidium iodide, PI) is used which can attach to the DNA, thus offering a quick and precise technique. PI cannot pass through the cell membrane and its signal intensity can be considered as directly proportional to quantity of cellular DNA. Cells whose cell membranes are damaged or have changed permeability are counted as dead ones. The assay was performed by seeding the cells of different cell lines at a density of 3000-7500 cells/well (in200μl medium) in culture plates followed by incubation for 24h at 37 °C in humidified 5%CO2/95% air atmospheric conditions. The medium was removed; the compounds were added to the plates at 10 μM concentrations (in 0.1% DMSO) in triplicates, followed by incubation for 48h. DMSO (0.1%) was used as control. After incubation, medium was removed followed by the addition of PI (25 μl, 50μg/mL in water/medium) to each well of the plates. At - 80 °C, the plates were allowed to freeze for 24 h, followed by thawing at 25 °C. A fluorometer (Polar-Star BMG Tech) was used to record the readings at excitation and emission wavelengths of 530 and 620 nm for each well. The percentage cytotoxicity of compounds was calculated using […]
(§3) Where ATC= Absorbance of treated cells and AC= Absorbance of control. Erlotinib was used as positive control in the assay.

[2] = system: Caspase-8; experiment: Caspase-8 activation assay; assay type: cell-based, human; conditions: A-594 cells; for Caspase-8 Fold change: at IC50 concentration, vs untreated control; for Caspase-8 Conc: compound at its IC50 concentration
Description: When cells get specific signal instructions, they undergo apoptosis, which results in several significant changes. Caspases, considered the main workers in apoptosis, are activated early in the process, cleaving critical cellular components such as nuclear proteins like DNA repair enzymes or structural proteins found in the cytoskeleton that are required for optimal cellular function.
4.2.6. Caspase-8 activation assay […]
caspase8, and lysed with Cell Extraction Buffer. This lysate was diluted in Standard Diluent Buffer over the range of the assay and measured for human active caspase-8 content. (Cells are Plated in a density of 1.2 – 1.8 × 10,000 cells/well in a volume of 100µl complete growth medium + 100 ul of the tested compound per well in a 96-well plate for 24 hours before the enzyme assay for Tubulin.). The absorbance of each microwell was read on a spectro-photometer at 450 nm. A standard curve is prepared from 7human Caspase-8 standard dilutions and human Caspase-8 concentration determined. […]

[3] = system: HT-29 cells; experiment: Antiproliferative assay, HT-29; assay type: cell-based; conditions: Homo sapiens; HT-29 colon cancer cell line; read-out: Antiproliferative activity IC50 ± SEM, HT-29
Description: as §1, §2, §3

[4] = biological target: T1, aromatase (CYP19) (Homo sapiens, UniProt P11511); experiment: Aromatase inhibitory assay (Gentest kit, DBF fluorometric substrate)
T1 sequence (P11511 1-503): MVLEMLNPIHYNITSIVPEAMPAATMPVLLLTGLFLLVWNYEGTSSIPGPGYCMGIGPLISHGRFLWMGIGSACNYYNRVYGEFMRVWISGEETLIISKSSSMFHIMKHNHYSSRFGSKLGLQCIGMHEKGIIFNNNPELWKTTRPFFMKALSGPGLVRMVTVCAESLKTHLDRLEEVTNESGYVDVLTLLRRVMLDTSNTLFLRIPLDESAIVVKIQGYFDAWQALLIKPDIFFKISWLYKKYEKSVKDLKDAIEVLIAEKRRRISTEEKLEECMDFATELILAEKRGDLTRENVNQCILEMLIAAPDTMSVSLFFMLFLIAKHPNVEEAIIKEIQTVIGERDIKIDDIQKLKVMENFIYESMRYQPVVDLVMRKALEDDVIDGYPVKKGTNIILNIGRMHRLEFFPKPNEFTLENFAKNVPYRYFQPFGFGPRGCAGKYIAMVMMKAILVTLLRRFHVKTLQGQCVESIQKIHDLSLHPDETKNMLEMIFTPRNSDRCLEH
Description: The aromatase inhibitory effect was performed using the method reported by Stressor et al.[35].
This method was carried out according to the Gentest kit using CYP19 enzyme and DBF as a
fluorometric substrate. DBF was dealkylated by aromatase and then hydrolyzed to give the
fluorescein product. Briefly, 100 μL of cofactor, containing 78.4 μL of 50 mM phosphate buffer
(pH 7.4); 20 μL of 20x NADPH-generating system (26 mM NADP+, 66 mM glucose-6-phosphate,
and 66 mM MgCl2); and 1.6 μL of 100 U/mL glucose-6-phosphate dehydrogenase, was pipetted
into a 96-well plate and preincubated in 37 °C (water bath) for 10 min. The reaction was initiated
by addition of 100 μL of enzyme/substrate mixture containing 77.3 μL of 50 mM
phosphate buffer (pH 7.4); 12.5 μL of 16 pmol/mL CYP19; 0.2 μL of 0.2 mM DBF, and 10 μL of
0.25 mM diluted tested sample or 10% DMSO as a negative control or letrozole as a positive
control. Fluorescence signal was recorded using an excitation wavelength of 490 nm and emission
Percentage of inhibition (%inhibition) was calculated
as shown in Equation (1).
assayed in triplicate. Finally, IC50 values were determined by plot of concentrations versus %

[5] = system: Panc-1 cells; experiment: Antiproliferative assay, Panc-1; assay type: cell-based; conditions: Homo sapiens; Panc-1 pancreatic cancer cell line; read-out: Antiproliferative activity IC50 ± SEM, Panc-1
Description: as §1, §2, §3

[6] = system: four human cancer cell lines (A-549, MCF-7, Panc-1, HT-29); experiment: Antiproliferative assay, average over four cancer cell lines (GI50); assay type: cell-based; conditions: for IC50: average of IC50 against A-549, MCF-7, Panc-1, HT-29
Description: See Supplementary Appendix SA1 for more details.
as §1
To explore the antiproliferative potential of compounds propidium iodide fluorescence assay was performed using different cell lines such as Panc-1 (pancreas cancer cell line), MCF-7 (breast […]
respectively. To calculate the total nuclear DNA, a fluorescent dye (propidium iodide, PI) is used which can attach to the DNA, thus offering a quick and precise technique. PI cannot pass through the cell membrane and its signal intensity can be considered as directly proportional to quantity of cellular DNA. Cells whose cell membranes are damaged or have changed permeability are counted as dead ones. The assay was performed by seeding the cells of different cell lines at a density of […]
The medium was removed; the compounds were added to the plates at 10 μM concentrations (in 0.1% DMSO) in triplicates, followed by incubation for 48h. DMSO (0.1%) was used as control. After incubation, medium was removed followed by the addition of PI (25 μl, 50μg/mL in water/medium) to each well of the plates. At - 80 °C, the plates were allowed to freeze for 24 h, followed by thawing at 25 °C. A fluorometer (Polar-Star BMG Tech) was used to record the readings at excitation and emission wavelengths of 530 and 620 nm for each well. The percentage cytotoxicity of compounds was calculated using […]
Where ATC= Absorbance of treated cells and AC= Absorbance of control. […]
positive control in the assay.

Compound | IC50 [1] | Caspase-8 Fold change [2] | Caspase-8 Conc [2] | IC50 [3] | IC50 [4] | IC50 [5] | Fold more effective than compound 11 (GI50) [6] | IC50 ([6]; Homo sapiens) | IC50 [6] | Fold less potent than Letrozole (aromatase IC50) [4] | Fold more potent than Ketoconazole (aromatase IC50) [4] | Fold potency relative to Erlotinib (GI50) ([6]; GI50 24 nM vs Erlotinib […] nM)
CCc1c2cc(Cl)ccc2n2cc(-c3ccccc3)[nH]c(=O)c12 [Compound 16, 8-Chloro-10-ethyl-3-phenylpyrazino [1,2-a]indol-1(2H)-one] | 25 ± 2 nM | 25 | 2.25 ± 0.18 ng/mL | 25 ± 2 nM | 12 ± 1 nM | 25 ± 2 nM | at least 1.4 fold | 28 nM | 26 nM |  |  | 
CCc1c2cc(Cl)ccc2n2c(C)c(C(=O)NCc3ccccc3)[nH]c(=O)c12 [Compound 7, N-benzyl-8-chloro-10-ethyl-4-methyl-1-oxo-1,2-dihydropyrazino [1,2-a]indole-3-carboxamide] | 28 ± 2 nM |  |  | 29 ± 2 nM | 15 ± 1 nM | 28 ± 2 nM | at least 1.4 fold | 29 nM |  |  |  | 
CCc1c2cc(Cl)ccc2n2cc(Cc3ccccc3)n(C)c(=O)c12 [Compound 12, 3-Benzyl-8-chloro-10-ethyl-2-methylpyrazino[1,2-a]indol-1(2H)-one] | 23 ± 2 nM | 29 | 2.60 ± 0.20 ng/mL | 25 ± 2 nM | 10 ± 1 nM | 24 ± 2 nM |  | 25 nM | 24 nM | 5 fold | at least 10 fold | 1.4 fold
CCc1c2cc(Cl)ccc2n2c(C)c(C(=O)OCc3ccccc3)[nH]c(=O)c12 [Compound 5, benzyl 8-chloro-10-ethyl-4-methyl-1-oxo-1,2-dihydropyrazino [1,2-a]indole-3-carboxylate] | 31 ± 3 nM |  |  | 32 ± 3 nM | 20 ± 2 nM | 32 ± 3 nM |  | 32 nM |  |  |  | 
